Measured values taken from patent US4731473A, “Compounds useful in treating sickle cell anemia” (Merck & Co., Inc., priority 1986, dated 1988).
Structures can show the parent of a compound that is named as a salt.

What was measured:
HbS = assay: Chromatographic separation: covalent binding to HbS
sickle hemoglobin (HbS) = sickle hemoglobin (HbS) (Homo sapiens, UniProt P68871+P69905, E7V); assay: solubility or Csat assay: solubility of deoxygenated sickle hemoglobin (Hofrichter et al.); assay type: biochemical; settings: low concentrations (5 mM); versus dichlorobenzyloxyacetic acid and p-bromobenzyloxyacetic acid
From the text: One major assay for evaluating antisickling agents involves measuring their effect on increasing the concentration at which sickle hemoglobin forms a gel. This is called the solubility or Csat assay.
The solubility assay (Csat assay) measures the ability of a compound to increase solubility of sickle hemoglobin (HbS). […] The higher the ratio, the higher the activity of the compound.
In order to confirm the effectiveness of these compounds in reducing the effect of sickle cell anemia, tests were performed. The materials were tested according to the assay (Csat) developed by Hofrichter et al. (J. Hofrichter, P. D. Ross and W. A. Eaton, Proc. Natl. Acad. Sci., U.S.A. 73, 30-35, 1976). This assay involves deoxygenation of concentrated sickle hemoglobin with dithionite in the presence of different concentrations of the drugs being tested. Samples are then sealed in quartz epr tubes under anaerobic conditions and spun at about 150,000 g for about 21/2 hours at about 35° C. in an ultracentrifuge. This procedure pellets the polymerized HbS (sickle hemoglobin) to the bottom of the tubes and the supernatant (soluble HbS) is measured in the laboratory as the cyanmethemoglobulin derivative. […] Activity is reported as a ratio of the HbS solubility with the particular drug to HbS solubility with no drug, i.e. control. The higher the ratio the greater degree of activity of the drug. […]

erythrocyte membranes = assay: Tests of transport across erythrocyte membranes; assay type: cell-based

## C=C(CC)C(=O)c1ccc(OCCCC(=O)O)c(Cl)c1Cl [sodium salt of 4-[2,3-dichloro-4-(2-methylenebutyryl)phenoxy]butyric acid]
HbS
  covalent binding between HbS and the agent (in words): desired tight covalent binding between the HbS and the therapeutic agent had occurred
Sickle hemoglobin (HbS)
  solubility ratio compared with other antisickling agents (in words): exhibited a higher solubility ratio than other antisickling agents
Erythrocyte membranes
  ability to cross the red blood cell membrane and react with hemoglobin (in words): confirmed the ability of the agent to cross the red blood cell membrane and react with hemoglobin
